According to patent publication EP4111863A1, “PHOSPHORUS USE EFFICIENCY ENHANCERS AS PLANT GROWTH PROMOTORS” (EuroChem Antwerpen, priority 2021, dated 2023):

System: SPX1
Experiment: Chemical activity assessment: SPX1 phosphate starvation biomarker, pSPX1::GUS reporter line, GUS stained area
Assay type: in vivo, Arabidopsis thaliana
Conditions: Table 3; 50 µM compound, low phosphate modMS liquid medium, 7 days after germination; low phosphate control average of the same plate
Description: All Arabidopsis plant experiments were performed using the Arabidopsis thaliana Columbia-0 background. The Arabidopsis pSPX1::GUS line is described in the […] 2008, 54: 965-975. For rice, the cultivar Nipponbare was used. For maize, the cultivars DKC 2931 and B104 were used for regular pot experiments and sand-based pot experiments, respectively. For soybean, the cultivar Primus was used. […] The medium was solidified due to the addition of 0,6% Gelrite, unless stated otherwise. In case of vertical plates (root length and root hair measurements), the medium was supplied with 0.5% of sucrose and 1 µM (low phosphate, 1 µM KH2PO4, 9.9 mM KCI), 10 µM (low phosphate 10 µM KH2PO4, 9.9 mM KCI) or 1.25 mM KH2PO4 (high phosphate). Arabidopsis seeds were stratified for 2 days at 4 °C before germination. Seedlings were germinated in climate-controlled growth chambers at 22 °C under continuous light (100 µmol m^-2 s^-1). Husked rice seeds were germinated on wetted Whatman paper for 2 days at 37 °C and then transferred to Sterivent boxes or square Petri dishes with solid medium. Maize and soybean seeds were wetted 24 hours at room temperature prior to sowing in pots.
For the chemical activity assessment 3 to 8 seeds per well of Arabidopsis pSPX1::GUS line were sown in 96-well plates containing 150 µl of low phosphate modMS liquid medium containing 1% of sucrose. Compounds were added in 50 µM concentration, starting from a 5 mM stock of compounds solved in DMSO. Different chemical substances were separately added to different wells. Per plate, 16 control wells were used, 8 containing only the low phosphate medium and 1% DMSO, and 8 containing high phosphate medium and 1% DMSO. 7 days after germination, plates were scanned using a flatbed scanner (EPSON Expression 11000XL) and analyzed for leaf size. After scanning, the growth medium was replaced by GUS staining solution (see Plant Mol. Biol. Rep. 1994, 12: 37-42 for details) and incubated for 1.5 hours at 37 °C. The plates were scanned a second time and analyzed for GUS signal area. Measurements of both leaf area and GUS signal area were conducted by filtering out and measure the green and blue signal, respectively using ImageJ software. If the green leaf area was 50% or less than the control, samples were omitted. Additionally, all results were visually screened for leaf size and GUS signal.

Row | SMILES | GUS (SPX1) stained area normalized to the number of seeds (pixels)
1 | O=C(C1CSCN1C(=O)CC1=CCCCC1)N1CCOCC1 (centres unmarked) | 162
2 | CCc1ccc(C(C)NCC2(N3CCOCC3)CCSC2)o1 (centres unmarked) | 151
3 | Cc1csc(C2CN(Cc3nc(-c4ccccc4)no3)CCO2)n1 (centres unmarked) | 0
4 | CN(Cc1ccccc1N1CCOCC1)C(=O)C12CC3CC(CC(C3)C1)C2 | 3
5 | CC(CNC(=O)N1CCCCC1c1cccn1C)CN1CCOCC1 (centres unmarked) | 65
6 | COCC(C)Nc1ccc(N2CCOC(C)(C)C2)cc1OC (centres unmarked) | 7
7 | Cc1cccc(-n2c(SCC3COc4ccccc4O3)nnc2N2CCOCC2)c1 (centres unmarked) | 26
8 | O=C(NCC(c1ccc(F)cc1)N1CCOCC1)C12CC3CC(CC(C3)C1)C2 (centres unmarked) | 1
9 | CCC1CN(C(=O)CCc2nc(-c3cccs3)no2)CCO1 (centres unmarked) | 23
10 | CC1COCCN1Cn1nc(Br)nc1Br (centres unmarked) | 47
11 | Cc1nc2c(c(C)nn2C)c(C)c1CCC(=O)N1CC(C)OC(C)C1 (centres unmarked) | 27
12 | CCCCS(=O)(=O)N1CCOCC1c1noc(C(C)C)n1 (centres unmarked) | 73
13 | Cc1c(C(=O)NCC2CN(CC(C)C)CCO2)cnn1C (centres unmarked) | 9
14 | CC(=O)Nc1nc(CN2CC(C)OC(c3ccsc3)C2)cs1 (centres unmarked) | 20
15 | CC(Nc1cnn(CCN2CCOCC2)c1)c1nccs1 (centres unmarked) | 25
16 | Cc1cc(C)n(CC2CN(c3ncnc4ccsc34)CCO2)n1 (centres unmarked) | 44
17 | CCN1CCOC(CNCc2ccc(-n3cncn3)cc2)C1 (centres unmarked) | 301
18 | O=C(CSc1ncnc2sccc12)c1ccc(CC(=O)N2CCOCC2)s1 | 15

Row | SMILES | GUS (SPX1) stained area normalized to the number of seeds (pixels)
19 | FC(F)(F)c1ccnc(N2CCOC(c3nccs3)C2)n1 (centres unmarked) | 0
20 | COC(=O)c1ccc(N2CCOC(c3ccc(C)o3)C2)nc1C (centres unmarked) | 24
21 | CC1CN(S(=O)(=O)N(CC2CCOC2)C2CC2)CC(C)O1 (centres unmarked) | 60
22 | CC1COCCN1C(=O)CCc1nc(-c2cccs2)no1 (centres unmarked) | 17
23 | C(=C\c1cc2ccccc2nc1N1CCOCC1)/c1nc2ccccc2s1 | 0
24 | O=C(CSc1ccc(F)cc1)Nc1ccc(Cl)c(S(=O)(=O)N2CCOCC2)c1 | 5
25 | COC(=O)C1CN(Cc2sccc2Br)C[C@@H](C)O1 (some centres unmarked) | 13
26 | COc1ccc(-c2[nH]c3ccccc3c2CCC(=O)N2CCOCC2)cc1 | 3
27 | O=C1C(=O)N(C2CCCC2)C(=O)N1Cc1cccc(S(=O)(=O)N2CCOCC2)c1 | 9
28 | O=C(c1cccs1)C(C(c1ccc(Cl)cc1)N1CCOCC1)N1CCOCC1 (centres unmarked) | 3
29 | CC1CCCN(C(C)CNS(=O)(=O)N2CCOCC2)C1 (centres unmarked) | 46
30 | Cn1c(Cl)cnc1CN1CCOC(c2ccc(Cl)cc2)C1 (centres unmarked) | 17
31 | COc1cccc(C(c2c(-c3ccccc3)n(O)c3ccccc23)N2CCOCC2)c1 (centres unmarked) | 54
32 | O=C1c2cccc3cccc(c23)C(=O)N1CCN1CCOCC1 | 29
33 | CCc1ncncc1C(=O)NCCN1CC(C)OC(C)C1 (centres unmarked) | 362
34 | CCCn1nc(C(=O)N2CC(C)OCC2C)ccc1=O (centres unmarked) | 2
35 | Cc1nc2c(cc(Oc3ccc(S(=O)(=O)N4CCOCC4)cn3)c3ccsc32)s1 | 26
